Values of other authors, collected in patent EP0486445A2, “Polyfunctional derivatives of cyclodextrin” (Chiellini, Emo, priority 1990, dated 1992).

Assays:
[1] = compared to the starting cyclodextrin; degree of substitution lower than 7
[2] = compared to the starting cyclodextrin

water solubility [2]	Molecule	toxicity [1]
much larger water solubility	2-hydroxypropyl- β-cyclodextrin [HP- βCD]	lower toxicity
much more water soluble	COC[C@H]1O[C@@H]2O[C@H]3[C@H](O)[C@@H](OC)[C@@H](O[C@H]4[C@H](O)[C@@H](OC)[C@@H](O[C@H]5[C@H](O)[C@@H](OC)[C@@H](O[C@H]6[C@H](O)[C@@H](OC)[C@@H](O[C@H]7[C@H](O)[C@@H](OC)[C@@H](O[C@H]8[C@H](O)[C@@H](OC)[C@@H](O[C@H]1[C@H](O)[C@H]2OC)O[C@@H]8COC)O[C@@H]7COC)O[C@@H]6COC)O[C@@H]5COC)O[C@@H]4COC)O[C@@H]3COC [DM-β CD, eptakis-(2,6-O-dimethyl)-β-cyclodextrin]	–
much larger water solubility	hydroxyethyl-β-cyclodextrin [HE- βCD]	lower toxicity
